From US9242940B2, “N-substituted bis(fluoroalkyl)-1,4-benzodiazepinone compounds” (BRISTOL-MYERS SQUIBB COMPANY, priority 2012, dated 2016)

Assay: Metabolic Stability Half-Life Panel, human liver microsomes
Format: in vitro ADME
Conditions: pH 7.4, human liver microsomes, 0.5 μM compound, NADPH, 45-minute time course, read-out: HLM (t1/2, min.)
Source text: Metabolic Stability Half-Life Panel

NC(=O)[C@@H](CCCC(F)(F)F)[C@@H](CCC(F)(F)F)C(=O)N[C@H]1N=C(c2ccccc2)c2ccccc2N(c2ccccn2)C1=O [Example 1, (2R,3S)-N-((3S)-2-Oxo-5-phenyl-1-(2-pyridinyl)-2,3-dihydro-1H-1,4-benzodiazepin-3-yl)-3-(4,4,4-trifluorobutyl)-2-(3,3,3-trifluoropropyl)succinamide]
half-life at 0.5 μM: ≥ 67 min

NC(=O)[C@@H](CCC(F)(F)F)[C@@H](CCC(F)(F)F)C(=O)N[C@H]1N=C(c2ccccc2)c2ccccc2N(c2ccc(Cl)cn2)C1=O [Example 2, (2R,3S)-N-((3S)-1-(5-Chloro-2-pyridinyl)-2-oxo-5-phenyl-2,3-dihydro-1H-1,4-benzodiazepin-3-yl)-2,3-bis(3,3,3-trifluoropropyl)succinamide]
half-life at 0.5 μM: ≥ 67 min

NC(=O)[C@@H](CCC(F)(F)F)[C@@H](CCC(F)(F)F)C(=O)N[C@H]1N=C(c2ccccc2)c2cc3c(cc2N(c2ccccn2)C1=O)OCO3 [Example 3, (2R,3S)-N-((7S)-6-Oxo-9-phenyl-5-(2-pyridinyl)-6,7-dihydro-5H-[1,3]dioxolo[4,5-h][1,4]benzodiazepin-7-yl)-2,3-bis(3,3,3-trifluoropropyl)succinamide]
half-life at 0.5 μM: ≥ 67 min

NC(=O)[C@@H](CCCC(F)(F)F)[C@@H](CCC(F)(F)F)C(=O)N[C@H]1N=C(c2ccccc2)c2ccccc2N(c2cccnc2)C1=O [Example 4, (2R,3S)-N-((3S)-2-Oxo-5-phenyl-1-(3-pyridinyl)-2,3-dihydro-1H-1,4-benzodiazepin-3-yl)-3-(4,4,4-trifluorobutyl)-2-(3,3,3-trifluoropropyl)succinamide]
half-life at 0.5 μM: ≥ 67 min

NC(=O)[C@@H](CCC(F)(F)F)[C@@H](CCC(F)(F)F)C(=O)N[C@H]1N=C(c2ccccc2)c2ccccc2N(c2cccnc2)C1=O [Example 5, (2R,3S)-N-((3S)-2-Oxo-5-phenyl-1-(3-pyridinyl)-2,3-dihydro-1H-1,4-benzodiazepin-3-yl)-2,3-bis(3,3,3-trifluoropropyl)succinamide]
half-life at 0.5 μM: ≥ 67 min

COc1ccc(C2=N[C@H](NC(=O)[C@H](CCC(F)(F)F)[C@H](CCC(F)(F)F)C(N)=O)C(=O)N(CC3CC3)c3ccccc32)cc1 [Example 6, (2R,3S)-N-((3S)-1-(Cyclopropylmethyl)-5-(4-methoxyphenyl)-2-oxo-2,3-dihydro-1H-1,4-benzodiazepin-3-yl)-2,3-bis(3,3,3-trifluoropropyl)succinamide]
half-life at 0.5 μM: ≥ 67 min

COc1ccc2c(c1)C(c1ccccc1)=N[C@H](NC(=O)[C@H](CCC(F)(F)F)[C@H](CCC(F)(F)F)C(N)=O)C(=O)N2CC(F)(F)F [Example 7, (2R,3S)-N-((3S)-7-Methoxy-2-oxo-5-phenyl-1-(2,2,2-trifluoroethyl)-2,3-dihydro-1H-1,4-benzodiazepin-3-yl)-2,3-bis(3,3,3-trifluoropropyl)succinamide]
half-life at 0.5 μM: ≥ 67 min

CC(F)(F)C[C@H](C(N)=O)[C@@H](CCC(F)(F)F)C(=O)N[C@H]1N=C(c2ccccc2)c2ccccc2N(CC2CC2)C1=O [Example 8, (2R,3S)-N-((3S)-1-(Cyclopropylmethyl)-2-oxo-5-phenyl-2,3-dihydro-1H-1,4-benzodiazepin-3-yl)-3-(2,2-difluoropropyl)-2-(3,3,3-trifluoropropyl)succinamide]
half-life at 0.5 μM: ≥ 67 min

CC(F)(F)C[C@@H](C(=O)N[C@H]1N=C(c2ccccc2)c2ccccc2N(CC2CC2)C1=O)[C@H](CCC(F)(F)F)C(N)=O [Example 9, (2R,3S)-N-((3S)-1-(Cyclopropylmethyl)-2-oxo-5-phenyl-2,3-dihydro-1H-1,4-benzodiazepin-3-yl)-2-(2,2-difluoropropyl)-3-(3,3,3-trifluoropropyl)succinamide]
half-life at 0.5 μM: ≥ 67 min
